Assay results published in ChEMBL document CHEMBL1201862, “PubChem BioAssay data set” (2004).
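Five concentrations, 48 hours, 96-well plates. GI50 = concentration required for 50% inhibition of growth.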 Active and inactive are the calls of the source. Rule as the data show it: active = GI50 up to about 1.1 µM and inactive = higher.

Experiments:
Assay in all cases: NCI tumour cell line growth inhibition, 48 h
[1] = system: 786-0
[2] = system: A498
[3] = system: A549
[4] = system: ACHN
[5] = system: BT-549
[6] = system: CAKI-1
[7] = system: CCRF-CEM
[8] = system: COLO 205
[9] = system: DU-145
[10] = system: EKVX
[11] = system: HCT-116
[12] = system: HCT-15
[13] = system: HL-60
[14] = system: HOP-62
[15] = system: HOP-92
[16] = system: HT-29
[17] = system: Hs-578T
[18] = system: IGROV-1
[19] = system: K562
[20] = system: KM12
[21] = system: LOX IMVI
[22] = system: M14
[23] = system: MCF7
[24] = system: MDA-MB-231
[25] = system: MDA-MB-435
[26] = system: MDA-N
[27] = system: MOLT-4
[28] = system: Malme-3M
[29] = system: NCI-H226
[30] = system: NCI-H23
[31] = system: NCI-H522
[32] = system: NCI/ADR-RES
[33] = system: OVCAR-3
[34] = system: OVCAR-4
[35] = system: OVCAR-5
[36] = system: OVCAR-8
[37] = system: PC-3
[38] = system: RPMI-8226
[39] = system: RXF 393
[40] = system: SF-268
[41] = system: SF-295
[42] = system: SF-539
[43] = system: SK-MEL-28
[44] = system: SK-MEL-2
[45] = system: SK-MEL-5
[46] = system: SN12C
[47] = system: SNB-19
[48] = system: SW-620
[49] = system: T47D
[50] = system: TK-10
[51] = system: U-251
[52] = system: UACC-257
[53] = system: UACC-62
[54] = system: UO-31
[55] = system: HCC 2998
[56] = system: NCI-H460
[57] = system: SK-OV-3
[58] = system: SNB-75

C1CN(c2nc3c(nnc4nc(N5CCOCC5)sc43)s2)CCO1
GI50 [1]: > 100 µM (inactive)
GI50 [2]: > 100 µM (inactive)
GI50 [3]: > 100 µM (inactive)
GI50 [4]: > 100 µM (inactive)
GI50 [5]: > 100 µM (inactive)
GI50 [6]: > 100 µM (inactive)
GI50 [7]: 52.8 µM (inactive)
GI50 [8]: > 100 µM (inactive)
GI50 [9]: > 100 µM (inactive)
GI50 [10]: > 100 µM (inactive)
GI50 [11]: > 100 µM (inactive)
GI50 [12]: > 100 µM
GI50 [13]: > 100 µM (inactive)
GI50 [14]: > 100 µM (inactive)
GI50 [15]: 29.4 µM (inactive)
GI50 [16]: > 100 µM (inactive)
GI50 [17]: 53.6 µM (inactive)
GI50 [18]: > 100 µM (inactive)
GI50 [19]: > 100 µM (inactive)
GI50 [20]: > 100 µM (inactive)
GI50 [21]: > 100 µM (inactive)
GI50 [22]: > 100 µM (inactive)
GI50 [23]: 73.3 µM (inactive)
GI50 [24]: > 100 µM (inactive)
GI50 [25]: > 100 µM (inactive)
GI50 [26]: > 100 µM (inactive)
GI50 [27]: 58.7 µM (inactive)
GI50 [28]: 37.2 µM (inactive)
GI50 [29]: 84.7 µM (inactive)
GI50 [30]: > 100 µM (inactive)
GI50 [31]: 45.3 µM (inactive)
GI50 [32]: > 100 µM (inactive)
GI50 [33]: 78.3 µM (inactive)
GI50 [34]: > 100 µM (inactive)
GI50 [35]: > 100 µM (inactive)
GI50 [36]: > 100 µM (inactive)
GI50 [37]: > 100 µM (inactive)
GI50 [38]: > 100 µM (inactive)
GI50 [39]: > 100 µM (inactive)
GI50 [40]: 49.7 µM (inactive)
GI50 [41]: > 100 µM (inactive)
GI50 [42]: > 100 µM (inactive)
GI50 [43]: > 100 µM (inactive)
GI50 [44]: > 100 µM (inactive)
GI50 [45]: > 100 µM (inactive)
GI50 [46]: 96.6 µM (inactive)
GI50 [47]: 89.1 µM (inactive)
GI50 [48]: > 100 µM (inactive)
GI50 [49]: 23.7 µM (inactive)
GI50 [50]: > 100 µM (inactive)
GI50 [51]: 60.8 µM (inactive)
GI50 [52]: > 100 µM (inactive)
GI50 [53]: > 100 µM (inactive)
GI50 [54]: > 100 µM (inactive)

O=C(C1OC1c1ccc([N+](=O)[O-])cc1)C12CC3CC(CC(C3)C1)C2 (stereo unspecified)
GI50 [1]: 9.98 µM (inactive)
GI50 [2]: 20.9 µM (inactive)
GI50 [3]: 25.7 µM (inactive)
GI50 [4]: 18.5 µM (inactive)
GI50 [5]: 23.8 µM (inactive)
GI50 [6]: 20.3 µM (inactive)
GI50 [7]: 2.79 µM (inactive)
GI50 [8]: 19.2 µM (inactive)
GI50 [9]: 18.2 µM (inactive)
GI50 [10]: 18.8 µM (inactive)
GI50 [55]: 20.7 µM (inactive)
GI50 [11]: 7.59 µM (inactive)
GI50 [12]: 13.2 µM
GI50 [13]: 3.46 µM (inactive)
GI50 [14]: 24.3 µM (inactive)
GI50 [15]: 20.3 µM (inactive)
GI50 [16]: 21.4 µM (inactive)
GI50 [17]: 19 µM (inactive)
GI50 [18]: 16.4 µM (inactive)
GI50 [19]: 13.1 µM (inactive)
GI50 [20]: 14.7 µM (inactive)
GI50 [21]: 1.69 µM (inactive)
GI50 [22]: 15.2 µM (inactive)
GI50 [23]: 13.3 µM (inactive)
GI50 [24]: 16.7 µM (inactive)
GI50 [25]: 12.3 µM (inactive)
GI50 [26]: 11.6 µM (inactive)
GI50 [27]: 18.5 µM (inactive)
GI50 [28]: 16.9 µM (inactive)
GI50 [29]: 17.2 µM (inactive)
GI50 [30]: 13.4 µM (inactive)
GI50 [56]: 13.6 µM (inactive)
GI50 [31]: 29 µM (inactive)
GI50 [32]: 17.6 µM (inactive)
GI50 [33]: 13.7 µM (inactive)
GI50 [34]: 17.8 µM (inactive)
GI50 [35]: 21 µM (inactive)
GI50 [36]: 16.6 µM (inactive)
GI50 [37]: 14.6 µM (inactive)
GI50 [39]: 22.5 µM (inactive)
GI50 [40]: 18.5 µM (inactive)
GI50 [41]: 12.3 µM (inactive)
GI50 [42]: 15.3 µM (inactive)
GI50 [43]: 17.6 µM (inactive)
GI50 [44]: 23.4 µM (inactive)
GI50 [45]: 15.6 µM (inactive)
GI50 [57]: 23.2 µM (inactive)
GI50 [46]: 13.1 µM (inactive)
GI50 [47]: 17.5 µM (inactive)
GI50 [58]: 19.1 µM (inactive)
GI50 [48]: 20.7 µM (inactive)
GI50 [49]: 16.6 µM (inactive)
GI50 [50]: 18.1 µM (inactive)
GI50 [51]: 11.9 µM (inactive)
GI50 [52]: 14.7 µM (inactive)
GI50 [53]: 12.1 µM (inactive)
GI50 [54]: 18.3 µM (inactive)
